These results are taken from US9586951B2 (FUJIFILM Corporation, priority 2013, dated 2017).

In one assay the target is T1, ATM (Homo sapiens, UniProt Q13315).
T1 construct: detecting phosphorylation of Chk2 in a human non-small cell lung cancer cell line NCI-H460 (ATCC company); host or cells: NCI-H460 human non-small cell lung cancer cells
The experiment in a line: ATM inhibition test (phosphorylation of Chk2 generated by ionizing radiation, AlphaScreen SureFire). In kind it is cell-based. The note with it: phosphorylated Chk2 in NCI-H460 cells, ionizing radiation 8Gy, 1 hour after test compound treatment; read-out: ATM inhibitory activity. The method in brief:
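NCI-H460 cells treated with compound for 1 hour, then irradiated with 8Gy and incubated 1 hour at 37° C. Phospho-Chk2 measured by AlphaScreen SureFire. Inhibition ratio calculated relative to untreated irradiated and non-irradiated wells.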

Assay [1] has as its system human non-small cell lung cancer cell line NCI-H460. The experiment in a line: Cell proliferation inhibition test by sensitivity-enhancing to ionizing radiation (Cell Titer Glo). In kind it is cell-based. Conditions: Homo sapiens, NCI-H460, 120 h, concentration in which SER became 2; NCI-H460 cells, ionizing radiation 2 Gy, cultured 120 hour. Put shortly:
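Cells seeded at 2×10^3 cells/mL in RPMI-1640 with 10% FBS; after 24 h, compound added (0.1% DMSO), and 30 min later half the plates irradiated at 2 Gy. After 120 hour at 37° C, viability by Cell Titer Glo luminescence; SER2 is the concentration giving SER of 2 by sigmoidal fit.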

T1 sequence (Q13315 whole entry): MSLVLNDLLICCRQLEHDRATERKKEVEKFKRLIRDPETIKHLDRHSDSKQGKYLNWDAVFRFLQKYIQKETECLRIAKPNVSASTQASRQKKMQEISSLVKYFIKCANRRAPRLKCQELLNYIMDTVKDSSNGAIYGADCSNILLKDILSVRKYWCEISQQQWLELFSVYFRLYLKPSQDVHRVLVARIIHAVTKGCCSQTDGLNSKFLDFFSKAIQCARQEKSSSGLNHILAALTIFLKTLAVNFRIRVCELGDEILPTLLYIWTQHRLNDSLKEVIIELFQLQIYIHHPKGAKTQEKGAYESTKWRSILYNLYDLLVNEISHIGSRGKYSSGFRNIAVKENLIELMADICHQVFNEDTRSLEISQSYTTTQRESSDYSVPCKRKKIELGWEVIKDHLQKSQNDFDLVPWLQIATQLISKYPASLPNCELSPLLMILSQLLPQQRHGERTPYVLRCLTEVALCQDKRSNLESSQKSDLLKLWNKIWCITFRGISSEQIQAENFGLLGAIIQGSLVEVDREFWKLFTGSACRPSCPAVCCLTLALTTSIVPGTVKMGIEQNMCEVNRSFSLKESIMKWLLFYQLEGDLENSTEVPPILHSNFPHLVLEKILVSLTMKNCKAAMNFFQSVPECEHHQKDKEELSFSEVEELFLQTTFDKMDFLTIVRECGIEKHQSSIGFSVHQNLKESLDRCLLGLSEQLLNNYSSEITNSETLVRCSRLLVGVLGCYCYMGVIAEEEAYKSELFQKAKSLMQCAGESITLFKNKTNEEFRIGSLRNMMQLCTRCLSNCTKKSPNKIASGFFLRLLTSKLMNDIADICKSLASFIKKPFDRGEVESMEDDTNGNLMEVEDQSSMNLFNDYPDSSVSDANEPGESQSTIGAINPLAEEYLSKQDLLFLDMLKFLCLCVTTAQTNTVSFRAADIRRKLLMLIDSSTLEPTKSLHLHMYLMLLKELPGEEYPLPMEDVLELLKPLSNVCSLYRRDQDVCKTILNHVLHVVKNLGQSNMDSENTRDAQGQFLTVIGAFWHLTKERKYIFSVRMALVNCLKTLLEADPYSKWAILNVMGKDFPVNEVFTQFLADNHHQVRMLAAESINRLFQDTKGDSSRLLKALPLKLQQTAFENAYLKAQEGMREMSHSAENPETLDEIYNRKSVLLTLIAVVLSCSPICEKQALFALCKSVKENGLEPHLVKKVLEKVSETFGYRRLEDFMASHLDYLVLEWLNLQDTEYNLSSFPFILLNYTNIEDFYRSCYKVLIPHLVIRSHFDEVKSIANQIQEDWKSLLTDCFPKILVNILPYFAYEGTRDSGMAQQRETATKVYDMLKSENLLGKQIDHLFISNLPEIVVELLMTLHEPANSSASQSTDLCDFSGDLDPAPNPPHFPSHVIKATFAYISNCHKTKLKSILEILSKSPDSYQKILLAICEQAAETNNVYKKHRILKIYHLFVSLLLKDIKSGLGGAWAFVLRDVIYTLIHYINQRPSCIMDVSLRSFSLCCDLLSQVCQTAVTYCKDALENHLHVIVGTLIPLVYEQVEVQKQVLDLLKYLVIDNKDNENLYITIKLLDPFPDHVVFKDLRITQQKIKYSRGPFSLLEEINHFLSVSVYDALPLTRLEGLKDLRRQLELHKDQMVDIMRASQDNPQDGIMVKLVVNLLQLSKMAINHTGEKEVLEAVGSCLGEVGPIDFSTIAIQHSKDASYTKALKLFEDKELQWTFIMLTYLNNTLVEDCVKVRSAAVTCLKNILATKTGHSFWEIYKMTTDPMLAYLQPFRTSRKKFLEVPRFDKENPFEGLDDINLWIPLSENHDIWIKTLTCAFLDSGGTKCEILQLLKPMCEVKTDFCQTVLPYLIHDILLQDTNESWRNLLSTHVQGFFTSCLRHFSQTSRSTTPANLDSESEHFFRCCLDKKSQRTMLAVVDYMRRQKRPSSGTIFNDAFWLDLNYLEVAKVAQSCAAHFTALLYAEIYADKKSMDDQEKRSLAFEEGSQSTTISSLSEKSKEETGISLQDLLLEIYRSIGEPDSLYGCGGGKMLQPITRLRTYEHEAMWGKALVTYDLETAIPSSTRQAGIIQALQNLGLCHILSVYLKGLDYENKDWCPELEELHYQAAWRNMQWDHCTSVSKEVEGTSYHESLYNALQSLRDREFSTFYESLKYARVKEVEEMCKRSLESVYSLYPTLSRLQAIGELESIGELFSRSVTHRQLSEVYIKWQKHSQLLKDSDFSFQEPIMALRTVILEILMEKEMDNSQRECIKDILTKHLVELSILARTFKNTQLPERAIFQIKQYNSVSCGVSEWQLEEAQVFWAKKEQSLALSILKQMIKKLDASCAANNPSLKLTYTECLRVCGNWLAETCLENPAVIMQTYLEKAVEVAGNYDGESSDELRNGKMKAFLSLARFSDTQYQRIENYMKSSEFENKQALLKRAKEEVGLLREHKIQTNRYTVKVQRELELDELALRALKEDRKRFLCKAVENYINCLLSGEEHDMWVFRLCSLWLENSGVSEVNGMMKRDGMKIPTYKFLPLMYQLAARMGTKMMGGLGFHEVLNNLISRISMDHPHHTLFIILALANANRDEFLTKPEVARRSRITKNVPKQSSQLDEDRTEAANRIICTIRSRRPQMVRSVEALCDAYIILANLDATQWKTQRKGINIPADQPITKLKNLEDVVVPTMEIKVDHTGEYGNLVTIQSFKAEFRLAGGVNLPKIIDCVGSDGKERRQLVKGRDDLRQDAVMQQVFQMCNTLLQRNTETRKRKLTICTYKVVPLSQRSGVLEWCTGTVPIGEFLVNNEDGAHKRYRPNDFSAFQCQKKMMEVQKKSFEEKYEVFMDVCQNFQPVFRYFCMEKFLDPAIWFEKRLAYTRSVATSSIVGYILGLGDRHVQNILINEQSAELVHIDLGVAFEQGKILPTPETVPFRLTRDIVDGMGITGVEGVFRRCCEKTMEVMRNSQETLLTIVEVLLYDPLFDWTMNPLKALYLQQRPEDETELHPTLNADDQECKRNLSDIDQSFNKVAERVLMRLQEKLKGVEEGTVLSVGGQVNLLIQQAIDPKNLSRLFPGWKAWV

Take `COc1ccc(CNc2ccc3c(c2)Sc2cccc(-c4cc(N5CCOCC5)cc(=O)[nH]4)c2O3)nc1` [Example 4-8-17, 6-(8-(((5-Methoxypyridin-2-yl)methyl)amino)phenoxathiin-4-yl)-4-morpholino pyridin-2(1H)-one]: the IC50 on ATM was under 100 nM. For the same molecule, the SER2 (concentration at which the radiation sensitivity-enhancement ratio reaches 2) in assay [1] is 100 to 500 nM.

For the molecule `CCC(Nc1ccc2c(c1)Sc1cccc(-c3cc(N4CCOCC4)cc(=O)[nH]3)c1S2)c1ccc(C)cn1` (stereo not shown) [Example 1-12-118, 6-(7-((1-(5-Methylpyridin-2-yl)propyl)amino)thianthren-1-yl)-4-morpholino pyridin-2(1H)-one], on ATM, the IC50 was under 100 nM. In addition, the SER2 (concentration at which the radiation sensitivity-enhancement ratio reaches 2) in assay [1] fell in the range of 100 to 500 nM.
